According to patent US20260274814A1, “THIENYL COMPOUNDS FOR THE TREATMENT OF A CENTRAL NERVOUS SYSTEM DISEASE OR DISORDER” (Coreterra Therapeutics, Inc., priority 2023, published 2026):
Counter-ions that a name gives are not always drawn.

System: mice
Assay: Neuropharmacological Assay (SmartCube): automated behavioral signature of compound-treated mice compared with a database of reference drug classes
Format: in vivo
Settings: for minimal effective dose: Mus musculus, ip, read-out: MED (minimal effective dose); for minimal effective dose / MED (minimal effective dose): dose having 45% or more total activity in SmartCube, i.p., if only one dose was tested, that dose is shown; for AD / AG / AN / AP / AX / CE / HL / MS / PS / SH / UK: probability that activity matches this class of agents, 3.0 mg/kg i.p., 15 min before test
Outline: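 i.p. dosing 15 min pre-test (NMP/PEG/propylene glycol vehicle); 3 doses, 3.0 mg/kg reported. Output = class-match probability per behavioural effect. Potency runs 0.3, 1, 3, 10 mpk (range adjusted as needed); MED = dose with ≥45% total activity.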

Row | Structure (SMILES) | minimal effective dose [mg/kg] | AD | AG | AN | AX | CE | HL | MS | PS | SH | UK | MED (minimal effective dose) (hydrochloride) [mpk] | AD (hydrochloride, 3 mg/kg) | AP (hydrochloride, 3 mg/kg) | UK (hydrochloride, 3 mg/kg) | other results
1 | Cl.FC1(F)CC(NC2CCc3cscc3C2)C1 (single isomer, unassigned) [Compound 126, N-(3,3-difluorocyclobutyl)-4,5,6,7-tetrahydro-2-benzothiophen-5-amine hydrochloride] | > 30 | ND (^ <4%) | ND (^ <4%) | ND (^ <4%) | ND (^ <4%) | ND (^ <4%) | ND (^ <4%) | ND (^ <4%) | ND (^ <4%) | ND (^ <4%) | ND (^ <4%) | – | – | – | – | AP: ND (^ <4%)
2 | Cl.FC1(F)CC(NC2CCc3cscc3C2)C1 (single isomer, unassigned) [Compound 127, N-(3,3-difluorocyclobutyl)-4,5,6,7-tetrahydro-2-benzothiophen-5-amine hydrochloride] | – | ND (^ <4%) | ND (^ <4%) | ND (^ <4%) | ND (^ <4%) | ND (^ <4%) | ND (^ <4%) | ND (^ <4%) | ND (^ <4%) | ND (^ <4%) | ND (^ <4%) | 30 | – | – | – | AP: ND (^ <4%)
3 | c1scc2c1CCC(NC1COC1)C2 (single isomer, unassigned) [Compound 128, N-(4,5,6,7-tetrahydro-2-benzothiophen-5-yl)oxetan-3-amine] | 10 | ND (^ <4%) | ND (^ <4%) | ND (^ <4%) | ND (^ <4%) | ND (^ <4%) | ND (^ <4%) | ND (^ <4%) | ND (^ <4%) | ND (^ <4%) | + (≥4%) | – | – | – | – | AP: ND (^ <4%)
4 | c1scc2c1CCC(NC1COC1)C2 (single isomer, unassigned) [Compound 129, N-(4,5,6,7-tetrahydro-2-benzothiophen-5-yl)oxetan-3-amine] | – | ND (^ <4%) | – | – | – | – | – | – | – | – | + (≥4%) | – | – | – | – | MED (minimal effective dose): 10 mpk
5 | CNC1CCc2scc(Cl)c2C1 (single isomer, unassigned) [Compound 131, 3-chloro-N-methyl-4,5,6,7-tetrahydrobenzothiophen-5-amine hydrochloride] | 3 | – | ND (^ <4%) | ND (^ <4%) | ND (^ <4%) | ND (^ <4%) | ND (^ <4%) | – | – | ND (^ <4%) | – | – | + (≥4%) | ++ (≥24%) | ND (^ <4%) | MS (hydrochloride, 3 mg/kg): + (≥4%); PS (hydrochloride, 3 mg/kg): ND (^ <4%)
6 | CNC1CCc2scc(Cl)c2C1 (single isomer, unassigned) [Compound 132, 3-chloro-N-methyl-4,5,6,7-tetrahydrobenzothiophen-5-amine hydrochloride] | – | – | ND (^ <4%) | ND (^ <4%) | ND (^ <4%) | ND (^ <4%) | ND (^ <4%) | – | – | ND (^ <4%) | – | – | ND (^ <4%) | + (≥4%) | ++ (≥24%) | MED (minimal effective dose): 3 mpk; MS (hydrochloride, 3 mg/kg): ND (^ <4%); PS (hydrochloride, 3 mg/kg): + (≥4%)
7 | CNC1CCc2csc(C#N)c2C1 (single isomer, unassigned) [Compound 133, 6-(methylamino)-4,5,6,7-tetrahydro-2-benzothiophene-1-carbonitrile hydrochloride] | – | – | ND (^ <4%) | ND (^ <4%) | ND (^ <4%) | ND (^ <4%) | ND (^ <4%) | ND (^ <4%) | ND (^ <4%) | ND (^ <4%) | – | <1 | +++ (≥49%) | + (≥4%) | ND (^ <4%) | –
8 | CNC1CCc2csc(C#N)c2C1 (single isomer, unassigned) [Compound 134, 6-(methylamino)-4,5,6,7-tetrahydro-2-benzothiophene-1-carbonitrile hydrochloride] | – | – | ND (^ <4%) | ND (^ <4%) | ND (^ <4%) | ND (^ <4%) | ND (^ <4%) | ND (^ <4%) | ND (^ <4%) | ND (^ <4%) | – | 3 | ND (^ <4%) | ND (^ <4%) | +++ (≥49%) | –
9 | NC1COc2ccsc2C1 (single isomer, unassigned) [Compound 135, 6,7-dihydro-5H-thieno[3,2-b]pyran-6-amine hydrochloride] | 3 | ND (^ <4%) | ND (^ <4%) | ND (^ <4%) | ND (^ <4%) | ND (^ <4%) | ND (^ <4%) | ND (^ <4%) | ND (^ <4%) | – | – | – | – | + (≥4%) | ND (^ <4%) | SH (hydrochloride, 3 mg/kg): ++ (≥24%)
10 | NC1COc2ccsc2C1 (single isomer, unassigned) [Compound 136, 6,7-dihydro-5H-thieno[3,2-b]pyran-6-amine hydrochloride] | – | ND (^ <4%) | ND (^ <4%) | ND (^ <4%) | ND (^ <4%) | ND (^ <4%) | ND (^ <4%) | ND (^ <4%) | ND (^ <4%) | – | – | >3 | – | ND (^ <4%) | + (≥4%) | SH (hydrochloride, 3 mg/kg): ND (^ <4%)
11 | CNC1CCc2scc(F)c2C1 (single isomer, unassigned) [Compound 137, 3-fluoro-N-methyl-4,5,6,7-tetrahydrobenzothiophen-5-amine hydrochloride] | 1 | ND (^ <4%) | ND (^ <4%) | ND (^ <4%) | – | ND (^ <4%) | ND (^ <4%) | ND (^ <4%) | ND (^ <4%) | ND (^ <4%) | ND (^ <4%) | – | – | ++++ (≥74%) | – | AX (hydrochloride, 3 mg/kg): ND (^ <4%)
12 | CNC1CCc2scc(F)c2C1 (single isomer, unassigned) [Compound 138, 3-fluoro-N-methyl-4,5,6,7-tetrahydrobenzothiophen-5-amine hydrochloride] | – | ND (^ <4%) | ND (^ <4%) | ND (^ <4%) | – | ND (^ <4%) | ND (^ <4%) | ND (^ <4%) | ND (^ <4%) | ND (^ <4%) | ND (^ <4%) | – | – | +++ (≥49%) | – | MED (minimal effective dose): 1 mpk; AX (hydrochloride, 3 mg/kg): ++ (≥24%)
